Laboratory results: patent publication US20210378193A1, “HAPLOID EMBRYOGENESIS” (STICHTING WAGENINGEN RESEARCH, priority 2013, published 2021)

Tests used:
[1] = system: BABY BOOM (BBM); LEAFY COTYLEDON1 (LEC1); LEC2, and FUSCA3; test: semi-quantitative RT-PCR of embryo-expressed genes in B. napus microspore culture; assay type: cell-based, Brassica napus; settings: TSA-treated microspore cultures, regardless of culture temperature
Description: Total RNA isolation and on-column DNase digestion were performed using the InviTrap Spin Plant RNA Mini Kit (Invitek) according to the manufacturer's instructions. For semi-quantitative RT-PCR, 250 ng of total RNA was used for first-strand cDNA synthesis with the Taqman Reverse Transcription Reagents Kit (Applied Biosystems). The cycling parameters were: one cycle at 98° C. for 30 s, 30 cycles comprising 98° C. for 5 s, 60° C. for 30 s, followed by 72° C. for 1 min. The semi-quantitative RT-PCR primers are from Malik et al. (2007) Plant Physiol. 144: 134-154. The quantitative RT-PCR primers for microarray validation were designed based on oligonucleotide probes from Affymetrix GeneChip® Brassica Exon 1.0ST Array (see Malik et al. (2007) supra and Love, C. G., et al. (2010) PloS one 5: e12812). The Arabidopsis hda T-DNA insertion lines were genotyped using the PCR primers. […]
The cell clusters that are formed in heat-stressed, TSA-treated cultures resemble those found in control cultures that are only exposed to a heat-stress treatment. […] Semi-quantitative RT-PCR and GFP reporter lines were used to determine whether the different types of sporophytic structures that develop in control and TSA-treated cultures are embryogenic. […]

histone H3 and H4 = test: Western blot of protein and histone acetylation in B. napus microspore cultures; assay type: cell-based, Brassica napus
Description: Freshly isolated microspores and microspores cultured for 8 hours under different experimental conditions were harvested by centrifugation. Proteins were extracted by boiling in SDS-sample buffer (30 μl per ml of culture) and electrophoresed in a Midget 12.5% SDS-PAGE gel under reducing conditions. After transfer of the proteins to PVDF membrane and blocking with 5% milk powder in PBS, 0.1% Tween 20, the blots were incubated for 2 hours with primary antibody (1:2000 dilution). The primary antibodies used in this study are as follows: anti-acetyl-Lysine (ICP0380; ImmuneChem Pharmaceuticals), anti-Histone H3 (ab1791; Abcam), anti-Histone H4 (clone 62-141-13; Millipore), and anti-acetyl-Histone H3 and anti-acetyl-Histone H4 (Millipore). Secondary goat anti-rabbit-HRP antibody (Sigma) was used in a 1:2000 dilution, and signals were detected by using enhanced chemiluminescence (SuperSignal West Femto Chemiluminescent Substrate, Pierce). An acetylated lysine antibody was used in combination with protein gel blotting to identify proteins whose acetylation status changes in 8-hour heat-stress plus TSA-treated B. napus microspore cultures compared to heat-stressed control cultures. […] Panels show: (A)=Western blot of total acetylated proteins in microspore cultures treated for eight hours with DMSO (control) or TSA—proteins in the range of 10-25 kDa are differentially acetylated after TSA treatment compared to the control; (B)=Western blot of total and acetylated (Ac) histone H3 and H4 in microspore cultures treated for eight hours with DMSO (control) or TSA. The percentages of sporophytic divisions in the different cultures at day 5 are shown under each sample. […] The acetylation status of histones H3 and H4 was determined during microspore culture using acetylated histone H3 (Ac-H3) and H4 (Ac-H4) antibodies. Microspore cultures were started from buds containing mostly binucleate pollen and placed for eight hours at either 18° C. or 33° C. with or without 0.5 μM TSA. […] (FIG. 8B).

[2] = system: B. rapa genotypes microspore culture; test: embryogenic cell divisions in Brassica rapa microspore culture; assay type: cell-based; settings: 0.5 μM TSA, six B. rapa genotypes
Description: The following B. rapa genotypes were tested in an experiment that measured t h e embryogenic activity of 0.5 μM TSA in microspore culture against respective controls in the absence of TSA: Microspores were obtained from donor buds. Donor buds were ranked from youngest (1) tooldest (3) developmental stage, whereby (2) is an intermediate stage. […] The data also indicates how genotype and/or donor bud stage may influence the level of embryogenic cell divisions caused by enhancement with TSA treatment over controlsin […]. Such stage-dependency is a normal observation in this tissue culture system.

[3] = system: Brassica oleracea Gongylodes group (kohlrabi) microspores; test: embryo production in Brassica oleracea Gongylodes group (kohlrabi) microspore culture; assay type: cell-based
Text: Microspores of different developmental stages were isolated by a standard method ([…] 1982, Journal of Plant Physiology 105:427-434).

## CC(/C=C/C(=O)NO)=C\[C@@H](C)C(=O)c1ccc(N(C)C)cc1 [TSA, trichostatin A]
[1]
  expression of BBM, LEC1, LEC2 and FUSCA3: enhanced
Histone H3 and H4; 0.5 μM TSA, eight hours
  total amount of histone H3 and H4: no clear effect
Histone H3 and H4; 0.5 μM TSA, eight hours at 18° C. and 33° C., divisions at day 5
  sporophytic divisions compared to untreated controls: greatly enhanced
Histone H3 and H4; 0.5 μM TSA, eight hours, 18° C. and 33° C.
  level of histone H3 and H4 acetylation relative to control: increased dramatically
Histone H3 and H4; 8-hour heat-stress plus TSA versus heat-stressed control
  acetylation of small molecular weight proteins in the range of 10-25 kDa: Increased protein acetylation
[2]
  total number of embryogenic cells per bud size compared to the control: greatly increases
[3]; 0.5 μM TSA, not heat-shocked (25° C.), control sum 204
  general embryo production, sum of experiments: 841
[3]; 18 days, not in the control
  large embryos in a recalcitrant (non-responsive) genotype: Large embryos are present
[3]; early time point, not in the control culture
  embryogenic clusters in a recalcitrant (non-responsive) genotype: found at an early time point
